Results from publication PMC7176540 (Chembiochem : a European journal of chemical biology, 2019).

Target: AlaI (Streptomyces alanosinicus, UniProt A0A6H1Z626)
Experiment: co-purification with the enzyme
Type: binding
Settings: 10 uM FAD also added in assay; pH 8.0

## Cc1cc2nc3c(=O)[nH]c(=O)nc-3n(C[C@H](O)[C@H](O)[C@H](O)COP(=O)(O)OP(=O)(O)OC[C@H]3O[C@@H](n4cnc5c(N)ncnc54)[C@H](O)[C@@H]3O)c2cc1C [FAD]
  co-purification with the enzyme: AlaI purified with FAD, hence we still observed activity without exogenous FAD added
